Assay results taken from patent US4178380A, “Benzopyrancarboxamides” (Shell Oil Company, priority 1978, dated 1979).

Assays:
[1] = system: swine adipose tissue; assay: inhibition of lipogenesis (incorporation of radioactive glucose into lipid) in pig adipose tissue slices; format: cell-based, pig (swine); details: Sus scrofa, glucose-U-14C, 100 micrograms per milliliter, 37° C., 2 hours, vs control, read-out: Percent Inhibition of lipogenesis
Text: (§1) The manner in which they cause this effect is not known with certainty; it is believed that they interfere with the synthesis of fatty acids in the tissues. Their effectiveness for this purpose has been ascertained by immersing samples of mammalian liver or adipose tissue in a liquid medium containing radioactive glucose and the test chemical for a period of time, then isolating the lipid from the treated tissue and determining the incorporation of the radioactive carbon into the lipid by means of scintillation counting techniques. These tests were conducted with both liver and adipose tissues, because in some animals the primary site of lipogenesis appears to be liver tissue, while in others it appears to be adipose tissue. The test animals were pigs, sheep, rabbits, cats and dogs.
Described in more detail, the tests were conducted according to the following general procedure:
Tissue slices (200 milligrams for liver; 150 milligrams for adipose tissue) were incubated, at 37° C. for 2 hours with shaking in 3 milliliters of Krebs-Ringer bicarbonate solution containing one-half the normal calcium ion concentration, 60 micromoles of glucose, 0.5 micro-Curie of glucose-U-^14 C, 300 microunits of insulin, and 5% dimethyl sulfoxide (DMSO). The test compounds were added as a solution or a suspension in DMSO and were present at a concentration of 100 micrograms per milliliter of the incubation mixture.
The incubation was terminated by addition of 0.25 milliliter of 1 N sulfuric acid. The incubation mixture was extracted with a total of 25 milliliters of chloroform:methanol (2:1, v/v). The extracts were washed according to Folch et al. (J. Biol. Chem., 226, 497-509, (1957)), air dried, and counted in a liquid scintillation counter with 15 milliliters of counting fluid (two parts toluene containing 0.4% w/v New England Nuclear Omnifluor: 1 part Triton X-100). The tests were conducted in triplicate and were accompanied by control tests in which all ingredients,proportions and conditions were the same except that no test compound was included. From the data obtained was calculated the percent inhibition of lipid synthesis by the test compound in each case.
Compound 2 was tested with respect to all of the animals. The other six compounds were tested only with respect to the pig.
From these and other tests, it was established that in pigs there is little lipogenic activity in the liver tissue. From these and other tests, it also has been established that swine adipose tissue utilizes glucose for lipogenesis, and to be the major site of fatty acid synthesis. The data obtained from the tests using adipose tissue and glucose are set out in Table 1, as the percent inhibition of lipogenesis compared to the results obtained in the control tests wherein only the test compound was omitted.

[2] = system: dog adipose tissue; assay: inhibition of glucose utilization in dog adipose tissue slices; format: cell-based; details: 100 micrograms per milliliter, 2 hours
Text: as §1
(§2) Described in more detail, the tests were conducted according to the following general procedure: […]
(§3) The incubation was terminated by addition of 0.25 milliliter of 1 N sulfuric acid. […] The extracts were washed according to Folch et al. (J. Biol. Chem., 226, 497-509, (1957)), air dried, and counted in a liquid scintillation counter with 15 milliliters of counting fluid (two parts toluene containing 0.4% w/v New England Nuclear Omnifluor: 1 part Triton X-100). […] From the data obtained was calculated the percent inhibition of lipid synthesis by the test compound in each case. […]

[3] = system: cat adipose tissue; assay: inhibition of glucose utilization in cat adipose tissue slices; format: cell-based; details: 100 micrograms per milliliter, 2 hours, result in words
Text: as §1, §2, §3

[4] = system: rabbit liver; assay: inhibition of glucose incorporation in rabbit liver slices; format: cell-based; details: 100 micrograms per milliliter, 2 hours
Text: as §1, §2, §3

[5] = system: rabbit adipose tissue; assay: inhibition of glucose incorporation in rabbit adipose tissue slices; format: cell-based; details: 100 micrograms per milliliter, 2 hours
Text: as §1, §2, §3

[6] = system: lipogenesis in swine adipose tissue; assay: in vivo test of inhibition of lipogenesis in swine, compound in feed, adipose tissue biopsy samples; parameters: species or system pig (swine); details: young, growing pigs, in feed approximately 50 milligrams per kilogram per day for seven days
Protocol: The effect of compound 2 on inhibition of lipogenesis in swine was confirmed by an in vivo test in which Compound 2 was included in the feed given to young, growing pigs for seven days, at a dosage of approximately 50 milligrams of Compound 2 per kilogram of the pig's body weight per day. Adipose tissue biopsy samples were taken at days 0, 6, 7 and 13 (one week off the drug) and the effect of the test compound on lipogenesis was determined using tissue slices prepared from the biopsy samples, by the procedure used in the in vitro tests.

[7] = system: sheep adipose tissue; assay: inhibition of glucose incorporation into lipids in sheep adipose tissue slices; format: cell-based; details: 100 micrograms per milliliter, 2 hours
Text: as §1, §2, §3

[8] = system: cat liver; assay: inhibition of glucose utilization in cat liver slices; format: cell-based; details: 100 micrograms per milliliter, 2 hours
Text: as §1, §2, §3

[9] = system: sheep liver; assay: inhibition of glucose incorporation into lipids in sheep liver slices; format: cell-based; details: 100 micrograms per milliliter, 2 hours
Text: as §1, §2, §3

SMILES	inhibition at 100 µg/mL [1]	further results
C=CCNC(=O)[C@@H]1C[C@H](O)c2cc(Cl)ccc2O1 (relative stereo) [Compound 7, 6-Chloro-4-hydroxy-N-(2-propenyl)-2H-1-benzopyran-2-carboxamide (cis)]	55%	
C=CCNC(=O)C1CCc2cc(Cl)ccc2O1 (stereo not drawn) [Compound 1, 6-Chloro-3,4-dihydro-N-(2-propenyl)-2H-1-benzopyran-2-carboxamide]	59%	
C=CCNC(=O)C1COc2ccccc2C1 (stereo not drawn) [Compound 2, 3,4-Dihydro-N-(2-propenyl)-2H-1-benzopyran-3-carboxamide]	83%	inhibition of glucose utilization in adipose tissue [2]: 73%; inhibition of glucose utilization in adipose tissue [3]: did not inhibit glucose utilization; inhibition of glucose incorporation into liver [4]: 9%; inhibition of glucose incorporation in adipose tissue [5]: 22%; symptom of toxicity [6]: No symptom of toxicity due to the test compound was noted; effect on lipogenesis in vivo ([6]; day 13 (one week off the drug)): significantly reduced lipogenesis; inhibition of glucose incorporation in adipose tissue [7]: 36%; inhibition of glucose utilization in the liver [8]: 26%; inhibition of glucose incorporation in the liver [9]: 32%
C=CCNC(=O)C1CCc2ccccc2O1 (stereo not drawn) [Compound 3, 3,4-Dihydro-N-(2-propenyl)-2H-1-benzopyran-2-carboxamide]	72%	
C=CCNC(=O)C1CCc2cc(-c3ccccc3)ccc2O1 (stereo not drawn) [Compound 4, 3,4-Dihydro-6-phenyl-N-(2-propenyl)-2H-1-benzopyran-2-carboxamide]	76%	
C=CCNC(=O)C1CCc2cc(C3CCCCC3)ccc2O1 (stereo not drawn) [Compound 5, 6-Cyclohexyl-3,4-dihydro-N-(2-propenyl)-2H-1-benzopyran-2-carboxamide]	40%	
C=CCNC(=O)C1COc2ccc(Cl)cc2C1 (stereo not drawn) [Compound 6, 6-Chloro-3,4-dihydro-N-(2-propenyl)-2H-1-benzopyran-3-carboxamide]	67%	
C=CCNC(=O)C1CCc2cc(Oc3ccccc3)ccc2O1 (stereo not drawn) [Compound 8, 3,4-Dihydro-6-phenoxy-N-(2-propenyl)-2H-1-benzopyran-2-carboxamide]	64%	
C=CCNC(=O)C1CCc2cc(C)ccc2O1 (stereo not drawn) [Compound 9, 3,4-Dihydro-6-methyl-N-(2-propenyl)-2H-1-benzopyran-2-carboxamide]	70%	
